Results published in paper PMC7699649 (Communications Biology, 2020).
Non-standard residues stand in square brackets, D forms with d. Residues, ends and D or L forms follow the SMILES beside them.

How the values were obtained:
[1] = Murine EMRSA-15 lung infection model: body weight; type: in vivo, C57Bl6J mice
[2] = system: MCP-1; experiment: Murine EMRSA-15 lung infection model: BAL cytokine ELISA; type: in vivo, C57Bl6J mice; conditions: vancomycin or D-pleurocidin-KR i.v., 48 h
[3] = in words
[4] = system: EMRSA-15; experiment: Murine EMRSA-15 lung infection model: lung CFU; type: in vivo, C57Bl6J mice
From the text: CFUs were quantified in lung homogenates.

[5] = Maximum tolerated dose (MTD) study, i.v.; type: in vivo; conditions: ICR mice
From the text: SI Figures: Why are there 6 different Figure 3s with separate legends? Within the 4th - 6th Figure 3’s, what are the 4 different graphs for each of A, B, and C? […] Figure 16, 19 and 24 […]
have unreadable components due to overlap of text.
Each panel that constitutes “Secondary structure analysis of pleurocidin peptides from MD simulations” and, as such, is the same data but analysed in different ways. For this reason, we considered it appropriate to consider these all as one figure. However, to provide further clarity we have renumbered the supplementary figures and added further detail to the legends. The DISICL analysis is presented with a separate panel for each peptide. This has been clarified in the figure legend.
The overlap in the metabolite annotation in Volcano plots is a challenge for those metabolites that do not change much or where there is low significance as they all cluster in the same place. Since they are below the significance threshold, we have elected to remove these labels. […]
unethical to perform dose-ranging experiments to confirm this. Instead our experimental design was […]
As mentioned above however, we […]
systemic delivery of AMPs will never be possible due to insufficient therapeutic index. There is a marginal therapeutic index provided based on mammalian cell toxicity (up to 12-fold), but many existing in vitro studies of AMPs have shown greater selectivity. […]

[6] = system: BAL cells; experiment: Murine EMRSA-15 lung infection model: BAL total and differential cell count; type: in vivo, C57Bl6J mice; conditions: 48 h
Method: Using the recently developed method[65], an overnight culture of EMRSA-15 was prepared in tryptic soy broth (TSB). EMRSA-15 was cultured in TSB overnight at 37 °C, adjusted to a starting OD600 of 0.025, and grown for additional 4 h for agar beads preparation. EMRSA-15 was embedded into agar beads by mixing the overnight culture with molten tryptic soy agar, which was then spun into warmed mineral oil. The preparation was cooled and centrifuged at 2700 × g, the remaining oil was eliminated, and the beads were washed in sterile PBS. The CFU content of the beads slurry was subsequently quantified on TSA plates and the beads slurry then diluted to 2 × 10^7 CFU/ml in sterile PBS to deliver a final dose of 1 × 10^6 CFU/mouse. Animal work was performed in accordance with the Animals (Scientific Procedures) Act of 1986 (United Kingdom) and 2012 revisions with local ethical approval of King’s College London. On day 0, male C57Bl6J mice (8–10 weeks, Charles River) were anaesthetised under Isoflurane and 50 µl inoculum of EMRSA-15 embedded in agar beads (10^6 CFU/mouse) was instilled directly into the respiratory tract via oropharyngeal dosing (o.a.). Sham control mice were inoculated with sterile PBS agar beads. […] Body weight was measured daily, and animals monitored at regular intervals for signs of pain and distress. After 48 h of pulmonary infection, animals were terminally euthanized using 25% urethane via intra-peritoneal injection. CFUs were quantified in lung homogenates. Lung homogenates were then centrifuged at 14000 rpm for 30 min at 4 °C and the supernatants were stored at −80 °C for future analysis. For BAL fluid collection and analysis (total and differential cell count), a 22-gauge catheter was inserted into the trachea and BAL was recovered by instillation of 0.5 ml of sterile PBS three times and total cells counts were performed by adding Turks stain in a 1:1 ratio. BAL fluid was then centrifuged, and supernatants were stored at −20 °C. Total levels of TNFα, IL-6, KC and MCP-1 were quantified from BAL fluid collected from all animals and measured by ELISA according to the manufacturer protocol (R&D Systems UK). Concentrations of all mediators were then normalised to total protein content of BAL fluid quantified via bicinchoninic acid total protein assays performed to manufacturers protocols (Thermofisher Scientific). […] Statistical analysis was by one-way ANOVA with Dunnett’s multiple comparisons test.

[7] = system: A549; type: cell-based; conditions: XTT, 24 h with peptide, OD475; DMEM, 10% FBS; average and standard error of three biological replicates
Method: (§1) HeLa and HEK293 cell lines were purchased from ECACC and cultured in Eagle’s Minimum Essential Media containing glutamine, supplemented with 10% FBS and 1X non-essential amino acids. A549 and Calu-3 cell lines were purchased from ATCC. […] Cytotoxicity was measured by incubating starter cultures of cells for 24 h in a 96 well plate, gently removing the supernatant and replacing it with dilutions of peptides and controls, incubating for a further 24 h and then staining of the cells with the second-generation tetrazolium dye, XTT.

[8] = system: HeLa; type: cell-based; conditions: XTT, 24 h with peptide, OD475; Eagle's Minimum Essential Media, 10% FBS; average and standard error of three biological replicates
Method: as §1

[9] = system: Calu-3; type: cell-based; conditions: XTT, 24 h with peptide, OD475; DMEM/F-12, 10% FBS; average and standard error of three biological replicates
Method: as §1

[10] = system: IL-6; experiment: Murine EMRSA-15 lung infection model: BAL cytokine ELISA; type: in vivo, C57Bl6J mice; conditions: 600 mg/kg vancomycin or D-pleurocidin-KR (also lowest dose 0.15 mg/kg) i.v., 48 h
[11] = system: KC; experiment: as above; type: in vivo, C57Bl6J mice; conditions: 600 mg/kg vancomycin or the two higher D-pleurocidin-KR doses (15, 1.5 mg/kg) i.v., 48 h

## CC(C)C[C@@H](NC(=O)[C@@H](Cc1ccc(O)cc1)NC(=O)[C@@H](Cc1c[nH]cn1)NC(=O)[C@H](NC(=O)[C@@H](CC(C)C)NC(=O)[C@@H](C)NC(=O)[C@@H](C)NC(=O)[C@@H](CCCNC(=N)N)NC(=O)CNC(=O)[C@H](NC(=O)[C@@H](Cc1c[nH]cn1)NC(=O)[C@@H](CCCNC(=N)N)NC(=O)CNC(=O)[C@H](NC(=O)[C@@H](Cc1c[nH]cn1)NC(=O)[C@@H](C)NC(=O)[C@@H](C)NC(=O)[C@@H](CCCNC(=N)N)NC(=O)[C@@H](CCCNC(=N)N)NC(=O)[C@@H](Cc1ccccc1)NC(=O)[C@@H](Cc1ccccc1)NC(=O)[C@@H](CO)NC(=O)CNC(=O)[C@@H](Cc1c[nH]c2ccccc12)NC(=O)CN)C(C)C)C(C)C)[C@H](C)O)C(N)=O [D-pleurocidin-KR] (H-G[dW]G[dS][dF][dF][dR][dR][dA][dA][dH][dV]G[dR][dH][dV]G[dR][dA][dA][dL][dT][dH][dY][dL]-NH2; N-terminus assumed)
[1]; cumulative 15 or 1.5 mg/kg/48 h D-pleurocidin-KR, 600 mg/kg vancomycin, i.v.
  weight loss over the 48-h infection period: mitigates this weight loss
[1]; lowest dose of 0.15 mg/kg D-pleurocidin-KR i.v.
  weight loss over the 48-h infection period: no observable effect
[2]
  levels of MCP-1 in BAL: No effects
[3]
  solubility in aqueous media: readily soluble
[4]; cumulative 1.5 mg/kg/48 h i.v. (three doses at 4, 24, 30 h post infection)
  reduction in lung CFU: 0.9 log10
[4]; cumulative 15 mg/kg/48 h i.v. (three doses at 4, 24, 30 h post infection)
  reduction in lung CFU: 1.1 log10
[4]; lowest dose, cumulative 0.15 mg/kg i.v., 48 h
  reduction in lung CFU: did not cause a significant reduction
[5]
  dose tolerated when administered i.v.: 15 mg/kg/24 h
[6]; 600 mg/kg vancomycin or D-pleurocidin-KR (also lowest dose 0.15 mg/kg) i.v.
  neutrophil recruitment (BAL): reduced
[6]; vancomycin or D-pleurocidin-KR i.v.
  macrophage numbers in BAL: No effects
[7]
  Toxicity A549 (EC50 / IC50): (56.5 ± 4.5) µg/ml
[8]
  Toxicity HeLa (EC50 / IC50): (25.3 ± 2.2) µg/ml
[9]
  Toxicity Calu-3 (EC50 / IC50): (39.1 ± 1.8) µg/ml
[10]
  IL-6 in BAL: reduced
[11]
  KC levels in BAL: fall to that of the uninfected group
